Experimental data reported in patent US5183818A, “Arylalkylether and arylalkylthioether inhibitors of lipoxygenase enzyme activity” (Abbott Laboratories, priority 1991, dated 1993).

What was measured:
[1] = molecular target: T1, 5-Lipoxygenase from RBL-1 20,000 × g Supernatant (Rattus norvegicus, UniProt P12527); assay: 5-lipoxygenase inhibition in 20,000 xg supernatant of homogenized RBL-1 cells (radiolabeled arachidonic acid); format: biochemical; conditions: in vitro, incubations in triplicate, read-out: IC50 × 10^6 Molar
T1 construct: 20,000 xg supernatant from 1.5 million homogenized RBL-1 cells; endogenous in cells; host or cells: RBL-1 cells, 20,000 xg supernatant of homogenate
T1 sequence (P12527 1-673): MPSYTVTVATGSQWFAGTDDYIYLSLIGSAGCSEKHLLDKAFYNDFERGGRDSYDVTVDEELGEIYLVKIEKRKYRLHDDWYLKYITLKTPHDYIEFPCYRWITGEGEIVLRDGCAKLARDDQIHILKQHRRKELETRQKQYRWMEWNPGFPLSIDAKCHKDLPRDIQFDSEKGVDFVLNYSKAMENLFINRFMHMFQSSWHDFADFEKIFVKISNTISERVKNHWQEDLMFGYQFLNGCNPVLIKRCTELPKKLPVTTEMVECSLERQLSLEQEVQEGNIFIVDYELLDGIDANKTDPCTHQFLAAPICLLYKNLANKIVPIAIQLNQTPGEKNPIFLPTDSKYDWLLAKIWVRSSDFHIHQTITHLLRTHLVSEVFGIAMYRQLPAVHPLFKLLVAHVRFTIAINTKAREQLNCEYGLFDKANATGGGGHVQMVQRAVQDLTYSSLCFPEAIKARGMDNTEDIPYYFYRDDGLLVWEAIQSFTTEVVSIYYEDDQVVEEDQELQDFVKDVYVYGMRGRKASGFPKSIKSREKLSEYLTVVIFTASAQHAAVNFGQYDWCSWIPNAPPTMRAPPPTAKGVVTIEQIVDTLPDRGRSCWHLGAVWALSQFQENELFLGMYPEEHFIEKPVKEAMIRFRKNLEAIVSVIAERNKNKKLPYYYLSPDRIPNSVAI
Protocol: Assays to determine 5-lipoxygenase inhibitory activity were performed in […] incubations containing the 20,000 xg supernatant from 1.5 million homogenized RBL-1 cells and various concentrations of the test compound. Reactions were initiated by addition of radiolabeled arachidonic acid and terminated by acidification and ether extraction. Reaction products were separated from nonconverted substrate by thin layer chromatography and measured by liquid scintillation spectroscopy. All incubations are performed in triplicate. Inhibition of 5-lipoxygenase activity was calculated as the ratio of the amount of product formed in the presence and absence of inhibitor. IC50 values (concentration of compound producing 50% enzyme inhibition) were calculated by linear regression analysis of percentage inhibition versus log inhibitor concentration plots. (Dyer, R. D.; Haviv, F.; Hanel, A. M.; Bornemier, D. A.; Carter, G. W. Fed. Proc., Fed. Am. Soc. Exp. Biol. 1984, 43, 1462A).

Leukotriene Biosynthesis = assay: Inhibition of leukotriene biosynthesis in vivo, rat peritoneal anaphylaxis model; conditions: 200 μmol/kg oral (gavage) one hour prior to antigen challenge, peritoneal fluids 15 minutes after challenge
Protocol: Inhibition of the biosynthesis of leukotrienes in vivo after oral administration of compound was determined using a rat peritoneal anaphylaxis model in a similar manner as that described by Young and coworkers (Young, P. R.; Dyer, R. D.; Carter, G. W. Carter, G. W. Fed. Proc., Fed. Am. Soc. Exp. Biol. 1985, 44, 1185). In this model rats were injected intraperitoneally (ip) with rabbit antibody to bovine serum albumin (BSA) and three hours later injected ip with BSA to induce an antigen antibody response. Rats were sacrificed 15 minutes after this challenge and the peritoneal fluids were collected and analyzed for leukotriene levels. Test compounds were administered by gavage one hour prior to the antigen challenge. Percent inhibition values were determined by comparing the treatment group to the mean of the control group, and the results are presented in Table 2 for representative compounds of the present invention.

Compound	IC50 [1] [µM]	Percent Inhibition of Leukotrienes at 200 μmol/kg (Oral Dose) (Leukotriene Biosynthesis) [%]
CC(CSc1ccccn1)N(O)C(N)=O (stereo not shown) [Example 2, N-hydroxy-N-[2-(1-(2-pyridyl)thio)propyl] urea]	9.7	
CC(COCc1ccco1)N(O)C(N)=O (stereo not shown) [Example 3]	12	77
Cc1ccc(C(C)OCCN(O)C(N)=O)o1 (stereo not shown) [Example 4, N-Hydroxy-N-[2-(1-[1-(5-methylfur-2-yl)]ethoxy)ethyl] urea]	6.3	
Cc1ccc(COCCN(O)C(N)=O)o1 [Example 6, N-Hydroxy-N-[2-(5-methylfur-2-ylmethoxy)ethyl] urea]	7.3	
Cc1ccc(C(C)OCC(C)N(O)C(N)=O)o1 (stereo not shown) [Example 7, N-Hydroxy-N-[2-(1-[1-(5-methylfur-2-yl)]ethoxy)propyl] urea]	6.6	
Cc1cc(COCC(C)N(O)C(N)=O)c(C)o1 (stereo not shown) [Example 8]	5.7	
Cc1cc(COCCN(O)C(N)=O)c(C)o1 [Example 9, N-Hydroxy-N-[2-(1-(2,5-dimethylfur-3yl)methoxy)ethyl] urea]	6.9	
Cc1occc1COCC(C)N(O)C(N)=O (stereo not shown) [Example 10]	6	75
CC(COCc1ccoc1)N(O)C(N)=O (stereo not shown) [Example 11]	9.3	78
CC(OCC(C)N(O)C(N)=O)c1ccco1 (stereo not shown) [Example 12, N-Hydroxy-N-[2-(1-[1-(fur-2-yl)ethoxy)]propyl] urea]	7.3	
CNC(=O)N(O)C(C)CSCc1ccc(CN(C)C)o1 (stereo not shown) [Example 18, N-Hydroxy-N-[2-(1-(5-N,N-dimethylaminomethyl)fur-2-ylmethylthio)-propyl]-N'-methyl urea]	27.6	
CC(COCc1ccsc1)N(O)C(N)=O (stereo not shown) [Example 21]	8.4	

The next compounds have a lower IC50 [1] than those just listed; values first:

IC50 [1] [µM]	Compound	Percent Inhibition of Leukotrienes at 200 μmol/kg (Oral Dose) (Leukotriene Biosynthesis) [%]
5.5	CC(CSCc1ccco1)N(O)C(N)=O (stereo not shown) [Example 1]	71
4.6	Cc1ccc(COCC(C)N(O)C(N)=O)o1 (stereo not shown) [Example 5]	
1.9	Cc1ccc(COCC(C)N(O)C(N)=O)s1 (stereo not shown) [Example 13]	
3	Cc1ccc(COCCN(O)C(N)=O)s1 [Example 14, N-Hydroxy-N-[2-(1-(5-methylthien-2-yl)methoxy)ethyl] urea]	92
0.2	CC(OCCN(O)C(N)=O)c1cc2ccccc2s1 (stereo not shown) [Example 15, N-Hydroxy-N-[2-(1-[1-(benzo[b]thien-2-yl)]ethoxy)ethyl) urea]	
0.67	NC(=O)N(O)CCOCc1cc2ccccc2s1 [Example 16, N-Hydroxy-N-[2-(1-(benzo[b]thien-2-yl)methoxy)ethyl] urea]	
0.46	CC(COCc1cc2ccccc2s1)N(O)C(N)=O (stereo not shown) [Example 17]	89
4.1	NC(=O)N(O)CCOCc1cccs1 [Example 19, N-Hydroxy-N-[2-(thien-2-ylmethoxy)ethyl] urea]	100
4.5	CC(COCc1cccs1)N(O)C(N)=O (stereo not shown) [Example 20]	
